Measured values reported in ChEMBL document CHEMBL5346964, “Discovery of LNP1892: A Precision Calcimimetic for the Treatment of Secondary Hyperparathyroidism” (J Med Chem, 2023).

Key:
[1] = Clearance in Sprague-Dawley rat at 1 mg/kg, iv measured upto 24 hrs by LC-MS/MS analysis; format: ADME, organism-based; conditions: in vivo
Rattus norvegicus [2] = assay: Acute effect on parathyroid hormone in overnight fasted adenine diet-induced chronic kidney disease Wistar rat model assessed as reduction in plasma PTH level at 10 mg/kg, po measured after 4 hrs of post treatment by sandwich ELISA analysis; format: functional; set-up: scale not given: the % may be the effect or the level left
hERG [3] = molecular target: T1, hERG (Homo sapiens, UniProt Q12809); assay: Inhibition of hERG at 1 uM relative to control; format: toxicity
Rattus norvegicus [4] = assay: Subchronic effect on parathyroid hormone in overnight fasted adenine diet-induced chronic kidney disease Wistar rat model plasma assessed as reduction in plasma PTH level at 3 mg/kg, po qd measured after 27 days of post treatment by sandwich ELISA analysis; format: functional; set-up: scale not given: the % may be the effect or the level left; conditions: time 27 day
[5] = AUClast in Sprague-Dawley rat at 1 mg/kg, iv measured upto 24 hrs by LC-MS/MS analysis; format: ADME, organism-based; set-up: dose 1 mg/kg, time < 24 hrs, route iv; conditions: in vivo
[6] = Oral bioavailability in Sprague-Dawley rat at 10 mg/kg measured upto 24 hrs by LC-MS/MS analysis; format: ADME, organism-based; conditions: in vivo
[7] = Cmax in Sprague-Dawley rat at 10 mg/kg, po measured upto 24 hrs by LC-MS/MS analysis; format: ADME, organism-based; set-up: time < 24 hrs, dose 10 mg/kg, route po; conditions: in vivo
[8] = Effect on parathyroid hormone in overnight fasted Sprague-Dawley rat assessed as reduction in plasma PTH level at 10 mg/kg, po measured after 2 hrs of post treatment by sandwich ELISA analysis; format: functional; set-up: scale not given: the % may be the effect or the level left
[9] = Effect on parathyroid hormone in overnight fasted Sprague-Dawley rat assessed as reduction in plasma PTH level at 10 mg/kg, po measured after 4 hrs of post treatment by sandwich ELISA analysis (reference value: 18%); format: functional; set-up: scale not given: the % may be the effect or the level left
Rattus norvegicus [10] = assay: Acute effect on parathyroid hormone in overnight fasted adenine diet-induced chronic kidney disease Wistar rat model assessed as reduction in plasma PTH level at 10 mg/kg, po measured after 2 hrs of post treatment by sandwich ELISA analysis; format: functional; set-up: scale not given: the % may be the effect or the level left
[11] = Effect on parathyroid hormone in overnight fasted Sprague-Dawley rat assessed as reduction in plasma PTH level at 10 mg/kg, po measured after 6 hrs of post treatment by sandwich ELISA analysis (reference value: 33%); format: functional; set-up: scale not given: the % may be the effect or the level left
[12] = Half life in Sprague-Dawley rat at 1 mg/kg, iv measured upto 24 hrs by LC-MS/MS analysis; format: ADME, organism-based; conditions: in vivo
[13] = Tmax in Sprague-Dawley rat at 10 mg/kg, po measured upto 24 hrs by LC-MS/MS analysis; format: ADME, organism-based; conditions: in vivo
[14] = Effect on parathyroid hormone in overnight fasted Sprague-Dawley rat assessed as reduction in plasma PTH level at 10 mg/kg, po measured after 0.5 hrs of post treatment by sandwich ELISA analysis; format: functional; set-up: scale not given: the % may be the effect or the level left
[15] = Cmax in Sprague-Dawley rat at 1 mg/kg, iv measured upto 24 hrs by LC-MS/MS analysis; format: ADME, organism-based; set-up: dose 1 mg/kg, time < 24 hrs, route iv; conditions: in vivo
hERG [16] = molecular target: T1, hERG; assay: Inhibition of hERG at 10 uM relative to control; format: toxicity
[17] = Microsomal stability in rat liver microsomes assessed as parent compound remaining at 1 uM measured upto 30 mins in presence of NADPH by LC-MS/MS analysis; format: ADME, Microsome; conditions: read-out: Stability
Rattus norvegicus [18] = assay: Effect on parathyroid hormone in po dosed overnight fasted Sprague-Dawley rat assessed as reduction in plasma PTH level measured after 0.5 to 6 hrs of post treatment by sandwich ELISA analysis; format: functional, organism-based; conditions: dose 3-30 mg/kg, time 0.5-6 hrs
[19] = molecular target: T2, Extracellular calcium-sensing receptor (Homo sapiens, UniProt P41180); assay: Agonist activity at human CaSR expresssed in HEK293 cells in presence of glucose by Fluo4NW dye based FLIPR assay; format: functional, cell-based; conditions: read-out: EC50
T2 sequence (P41180 whole entry): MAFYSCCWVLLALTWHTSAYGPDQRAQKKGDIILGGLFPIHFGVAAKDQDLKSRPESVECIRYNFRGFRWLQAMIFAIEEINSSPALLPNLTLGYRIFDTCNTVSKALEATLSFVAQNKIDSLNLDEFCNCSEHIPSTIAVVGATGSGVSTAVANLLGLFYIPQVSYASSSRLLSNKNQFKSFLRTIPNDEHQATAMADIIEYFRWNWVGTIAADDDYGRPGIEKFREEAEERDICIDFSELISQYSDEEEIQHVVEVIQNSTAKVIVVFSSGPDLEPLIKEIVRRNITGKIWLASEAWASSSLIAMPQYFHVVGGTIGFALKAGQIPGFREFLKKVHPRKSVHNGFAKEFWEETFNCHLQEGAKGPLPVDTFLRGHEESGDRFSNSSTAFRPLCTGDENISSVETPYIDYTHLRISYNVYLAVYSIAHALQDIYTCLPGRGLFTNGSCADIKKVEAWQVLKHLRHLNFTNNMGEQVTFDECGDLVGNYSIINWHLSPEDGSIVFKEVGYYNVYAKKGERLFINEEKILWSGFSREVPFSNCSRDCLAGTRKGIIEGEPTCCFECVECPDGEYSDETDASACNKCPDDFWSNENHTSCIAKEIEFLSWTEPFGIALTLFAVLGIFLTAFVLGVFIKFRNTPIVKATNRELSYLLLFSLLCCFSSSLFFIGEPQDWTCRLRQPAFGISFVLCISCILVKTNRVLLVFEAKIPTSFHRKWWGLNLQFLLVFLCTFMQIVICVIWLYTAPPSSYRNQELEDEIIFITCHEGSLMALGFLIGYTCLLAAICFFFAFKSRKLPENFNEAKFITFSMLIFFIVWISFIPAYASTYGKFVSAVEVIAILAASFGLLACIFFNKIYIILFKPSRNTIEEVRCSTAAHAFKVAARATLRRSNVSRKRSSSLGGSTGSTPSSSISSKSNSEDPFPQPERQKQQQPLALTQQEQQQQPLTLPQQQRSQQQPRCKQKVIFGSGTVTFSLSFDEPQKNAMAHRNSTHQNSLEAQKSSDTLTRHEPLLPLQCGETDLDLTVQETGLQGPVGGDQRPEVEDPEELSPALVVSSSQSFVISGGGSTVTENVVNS

Rattus norvegicus [20] = assay: Acute effect on parathyroid hormone in overnight fasted adenine diet-induced chronic kidney disease Wistar rat model assessed as reduction in plasma PTH level at 10 mg/kg, po measured after 1 hrs of post treatment by sandwich ELISA analysis; format: functional; set-up: scale not given: the % may be the effect or the level left
[21] = AUClast in Sprague-Dawley rat at 10 mg/kg, po measured upto 24 hrs by LC-MS/MS analysis; format: ADME, organism-based; set-up: dose 10 mg/kg, time < 24 hrs, route po; conditions: in vivo
Cytochrome P450 2D6 = Cytochrome P450 2D6 (Homo sapiens, UniProt P10635); assay: Inhibition of CYP2D6 in human liver microsomes preincubated for 5 mins followed by NADPH addition by LC-MS/MS analysis; format: ADME, Microsome
[22] = Microsomal stability in human liver microsomes assessed as parent compound remaining at 1 uM measured upto 30 mins in presence of NADPH by LC-MS/MS analysis; format: ADME, Microsome; conditions: liver microsomes, read-out: Stability
[23] = Volume of distribution at steady state in Sprague-Dawley rat at 1 mg/kg, iv measured upto 24 hrs by LC-MS/MS analysis; format: ADME, organism-based; conditions: in vivo, read-out: Vdss
Rattus norvegicus [24] = assay: Chronic effect on parathyroid hormone in overnight fasted adenine diet-induced chronic kidney disease Wistar rat model plasma assessed as reduction in plasma PTH level at 10 mg/kg, po qd measured after 27 days of post treatment by sandwich ELISA analysis; format: functional; set-up: scale not given: the % may be the effect or the level left; conditions: time 27 day

T1 sequence (Q12809 whole entry): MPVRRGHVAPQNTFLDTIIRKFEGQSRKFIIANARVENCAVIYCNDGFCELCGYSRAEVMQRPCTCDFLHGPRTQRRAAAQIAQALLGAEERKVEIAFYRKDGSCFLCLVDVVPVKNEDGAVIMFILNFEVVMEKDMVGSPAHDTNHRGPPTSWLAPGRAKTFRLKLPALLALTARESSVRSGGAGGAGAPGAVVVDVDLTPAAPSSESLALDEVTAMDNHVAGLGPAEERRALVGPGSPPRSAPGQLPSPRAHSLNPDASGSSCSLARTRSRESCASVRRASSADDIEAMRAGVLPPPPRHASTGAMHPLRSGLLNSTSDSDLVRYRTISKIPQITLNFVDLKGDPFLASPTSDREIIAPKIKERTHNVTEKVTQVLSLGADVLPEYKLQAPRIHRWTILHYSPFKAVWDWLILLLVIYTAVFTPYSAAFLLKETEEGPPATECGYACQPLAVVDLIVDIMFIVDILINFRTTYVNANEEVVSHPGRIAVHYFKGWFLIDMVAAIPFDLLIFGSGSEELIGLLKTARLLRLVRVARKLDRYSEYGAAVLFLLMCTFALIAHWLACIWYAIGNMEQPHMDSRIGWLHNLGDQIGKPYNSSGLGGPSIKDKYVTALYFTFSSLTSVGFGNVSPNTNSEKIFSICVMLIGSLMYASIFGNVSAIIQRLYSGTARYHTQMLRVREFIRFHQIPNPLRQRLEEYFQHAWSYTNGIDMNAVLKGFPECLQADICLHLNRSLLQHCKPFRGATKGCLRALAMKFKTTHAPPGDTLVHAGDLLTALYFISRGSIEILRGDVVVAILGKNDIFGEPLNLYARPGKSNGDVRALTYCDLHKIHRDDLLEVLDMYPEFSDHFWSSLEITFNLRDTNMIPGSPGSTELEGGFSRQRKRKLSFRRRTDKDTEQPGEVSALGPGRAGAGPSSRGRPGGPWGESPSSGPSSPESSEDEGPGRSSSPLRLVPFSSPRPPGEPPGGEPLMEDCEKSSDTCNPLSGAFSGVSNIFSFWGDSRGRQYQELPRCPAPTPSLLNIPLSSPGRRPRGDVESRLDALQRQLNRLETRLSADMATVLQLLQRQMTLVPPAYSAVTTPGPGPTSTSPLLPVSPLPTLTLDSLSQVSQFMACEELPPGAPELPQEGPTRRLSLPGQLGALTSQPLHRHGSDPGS
Chain of Cytochrome P450 2D6 (P10635 whole entry): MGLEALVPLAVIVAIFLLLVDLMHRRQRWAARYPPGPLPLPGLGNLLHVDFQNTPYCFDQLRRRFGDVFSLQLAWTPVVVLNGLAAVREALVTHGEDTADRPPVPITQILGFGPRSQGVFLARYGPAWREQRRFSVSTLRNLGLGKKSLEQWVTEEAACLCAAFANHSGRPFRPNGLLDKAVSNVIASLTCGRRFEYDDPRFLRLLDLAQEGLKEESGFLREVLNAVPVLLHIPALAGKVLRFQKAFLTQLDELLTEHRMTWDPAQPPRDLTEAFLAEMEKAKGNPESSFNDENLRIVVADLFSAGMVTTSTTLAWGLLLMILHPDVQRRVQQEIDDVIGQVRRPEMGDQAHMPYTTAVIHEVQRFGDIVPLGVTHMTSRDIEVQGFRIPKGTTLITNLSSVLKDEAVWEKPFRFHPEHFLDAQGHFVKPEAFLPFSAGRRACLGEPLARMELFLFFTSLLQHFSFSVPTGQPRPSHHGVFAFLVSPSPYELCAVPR

clearance [1]: 44 mL/min/kg
AUC(0-t) at 24 h [5]: 1.02 µM·h
bioavailability [6]: 19%
Cmax [7]: 270 nM
half-life [12]: 6 h
Tmax [13]: 0.5 h
Cmax [15]: 500 nM
remaining at 0.5 h, 1 µM [17]: 4%
EC50 [19]: 4 nM
AUC(0-t) at 24 h [21]: 1.9 µM·h
IC50 (Cytochrome P450 2D6): > 50000 nM
remaining at 0.5 h, 1 µM [22]: 65%
Vd [23]: 23 L/kg
SMILES: C[C@@H](NCCCc1cccc(C(F)(F)F)c1)c1cccc2ccccc12 [CINACALCET]
Activity (Rattus norvegicus [2]): 71%
inhibition at 1 µM (hERG [3]): 19%
Activity (Rattus norvegicus [4]): 37%
Activity [8]: 99%
Activity [9]: 74%
Activity (Rattus norvegicus [10]): 97%
Activity [11]: 61%
Activity [14]: 92%
inhibition at 10 µM (hERG [16]): 97%
Activity (Rattus norvegicus [18]): Dose-Dependent Effect
Activity (Rattus norvegicus [20]): 92%
Activity (Rattus norvegicus [24]): 58%
